Experiment in all cases: UV/vis and transient absorption of co-purified protein-bound FAD
Common to all, as to type: binding
Settings in all cases: pH 8.0, 10 mM Tris-HCl, 100 mM NaCl, 10% glycerol, 7 °C; oxidized FAD; free FAD removed by size-exclusion column

The target of assay [1] is T1, MmCPDII (class II CPD photolyase) (Methanosarcina mazei, UniProt Q8PYK9, W388F).
T1 construct: gene MM_0852; full-length from pET-28a-MmCPDII, E. coli BL21-Gold(DE3), NiNTA and SEC

Assay [2] has as its target T2, MmCPDII (class II CPD photolyase) (Methanosarcina mazei, UniProt Q8PYK9, Y345F).
T2 construct: gene MM_0852; full-length from pET-28a-MmCPDII, E. coli BL21-Gold(DE3), NiNTA and SEC

Assay [3] has as its target T3, MmCPDII (class II CPD photolyase) (Methanosarcina mazei, UniProt Q8PYK9).
T3 construct: gene MM_0852; full-length from pET-28a-MmCPDII, E. coli BL21-Gold(DE3), NiNTA and SEC

In assay [4] the target is T4, MmCPDII (class II CPD photolyase) (Methanosarcina mazei, UniProt Q8PYK9, E387Q).
T4 construct: gene MM_0852; full-length from pET-28a-MmCPDII, E. coli BL21-Gold(DE3), NiNTA and SEC

On to `Cc1cc2nc3c(=O)[nH]c(=O)nc-3n(C[C@H](O)[C@H](O)[C@H](O)COP(=O)(O)OP(=O)(O)OC[C@H]3O[C@@H](n4cnc5c(N)ncnc54)[C@H](O)[C@@H]3O)c2cc1C` [FAD], for which the “UV/vis and transient absorption of co-purified protein-bound FAD” value in assay [1] is reported as “Isolated MmCPDII photolyase (WT, as well as all mutants studied here) contains a fully oxidized FAD”; in assay [2] it was “Isolated MmCPDII photolyase (WT, as well as all mutants studied here) contains a fully oxidized FAD”; in assay [3], “Isolated MmCPDII photolyase (WT, as well as all mutants studied here) contains a fully oxidized FAD”; in assay [4] it was “Isolated MmCPDII photolyase (WT, as well as all mutants studied here) contains a fully oxidized FAD”.

Source of the values: paper PMC5885780, “Sub-nanosecond tryptophan radical deprotonation mediated by a protein-bound water cluster in class II DNA photolyases” (Chemical Science, 2017).
